Where a name gives a salt, the structure may show the parent alone. Read-outs that look alike come from different tables or passages of the source.
Experiments:
sigma receptor = assay: [3H]DTG displacement radioligand binding assay, guinea pig brain membranes
anxiety behavior of mice = assay: black:white test box (light/dark exploration) of mice; settings: for anxiolytic activity: 1 mg/kg
[3H]MK-801 = [3H]MK-801 displacement binding; settings: read-out: IC50 vs [3H]MK-801; Table II; ± s.e.m. (n)
[1] = list of especially preferred compounds, read-out: IC50 (high binding to the sigma receptor)
[2] = Example 25, guinea pig brain membrane homogenates, read-out: IC50 binding values
[3] = read-out: IC50 vs [3H]DTG, Table I, guinea pig brain membranes
[4] = read-out: IC50 vs [3H]DTG, Table II, ± s.e.m. (n)

N=C(Nc1ccccc1I)N[C@@H]1C[C@@H]2CC[C@H]1C2 (relative stereo) [N-((±)-endo-2-norbornyl)-N'-(2-iodophenyl)guanidine]
IC50 (sigma receptor; [1]): 5 nM
latency to entering the dark compartment (anxiety behavior of mice; oral): increase in the latency to entering the dark compartment
numbers of line crossings and/or rears in the light compartment (vs dark) (anxiety behavior of mice; oral): increase in the number of rears in the light compartment
proportion of time in light area / percentage of time in black compartment (anxiety behavior of mice; oral): decrease in the percentage time spent in the black compartment
sedation: total numbers of rears and line crossings (anxiety behavior of mice; oral): did not decrease significantly, showing that the drug was not sedative
latency to entering the dark compartment (anxiety behavior of mice; s.c.): dose-dependent increase in the latency to entering the dark compartment
numbers of line crossings and/or rears in the light compartment (vs dark) (anxiety behavior of mice; s.c.): significant dose-dependent increase in the number of rears in the light compartment
sedation: total numbers of rears and line crossings (anxiety behavior of mice; s.c.): did not decrease significantly, showing that the drug was not sedative

Cc1ccccc1NC(=N)N[C@H]1C[C@@H]2CC[C@H]1C2 (relative stereo) [N-(exo-2-norbornyl)-N'-(2-methylphenyl)guanidine]
IC50 (sigma receptor; [1]): 7 nM
latency to entering the dark compartment (anxiety behavior of mice; oral): increase in the latency to entering the dark compartment
numbers of line crossings and/or rears in the light compartment (vs dark) (anxiety behavior of mice; oral): increase in the number of rears in the light compartment
proportion of time in light area / percentage of time in black compartment (anxiety behavior of mice; oral): decrease in the percentage time spent in the black compartment
sedation: total numbers of rears and line crossings (anxiety behavior of mice; oral): did not decrease significantly, showing that the drug was not sedative
latency to entering the dark compartment (anxiety behavior of mice; s.c.): increase in the latency to entering the dark compartment when administered at 0.1 mg/kg
numbers of line crossings and/or rears in the light compartment (vs dark) (anxiety behavior of mice; s.c.): increase in the number of rears in the light compartment
sedation: total numbers of rears and line crossings (anxiety behavior of mice; s.c.): did not decrease significantly, showing that the drug was not sedative

N=C(NC1CCCCC1)NC12CC3CC(CC(C3)C1)C2 [AdChG, N, Adamantan-1-yl-N'-cyclohexylguanidine HCl]
in vitro [3H]DTG displacement activity (sigma receptor): found to possess the aforesaid in vitro [^3 H]DTG displacement activity
IC50 (sigma receptor; [2]): 12.5 ± 2.2 nM
IC50 (sigma receptor; [1]): 12.5 nM
IC50 (sigma receptor; [3]): 13 ± 2 nM
latency to entering the dark compartment (anxiety behavior of mice; s.c.): dose-dependent increase in the latency to entering the dark compartment
numbers of line crossings and/or rears in the light compartment (vs dark) (anxiety behavior of mice; s.c.): increase in the number of rears in the light compartment
sedation: total numbers of rears and line crossings (anxiety behavior of mice; s.c.): did not change significantly, showing that the drug was not sedative

Cl.N=C(Nc1ccccc1I)NC12CC3CC(CC(C3)C1)C2 [AdIpG, N-(Adamantan-1-yl)-N'-(2-iodophenyl)guanidine HCl]
in vitro [3H]DTG displacement activity (sigma receptor): found to possess the aforesaid in vitro [^3 H]DTG displacement activity
IC50 (sigma receptor; [2]): 6.2 ± 0.7 nM
IC50 (sigma receptor; [1]): 6.2 nM
IC50 (sigma receptor; [3]): 5 ± 1 nM
latency to entering the dark compartment (anxiety behavior of mice; oral): increase in the latency to entering the dark compartment
numbers of line crossings and/or rears in the light compartment (vs dark) (anxiety behavior of mice; oral): increase in the numbers of line crossings and rears in the light compartment
sedation: total numbers of rears and line crossings (anxiety behavior of mice; oral): did not decrease significantly
anxiolytic activity (anxiety behavior of mice; oral): have anxiolytic activity when orally administered
latency to entering the dark compartment (anxiety behavior of mice; s.c.): increased in a dose-dependent manner
numbers of line crossings and/or rears in the light compartment (vs dark) (anxiety behavior of mice; s.c.): increased at the expense of those in the dark compartment
proportion of time spent in the lighted area (anxiety behavior of mice; s.c.): increased, in a dose-dependent manner, the proportion of time the mice spent in the larger, lighted area
sedation: total numbers of rears and line crossings (anxiety behavior of mice; s.c.): did not decrease significantly showing that the drug was not sedative at this level

N=C(NC12CC3CC(CC(C3)C1)C2)NC12CC3CC(CC(C3)C1)C2 [DAG, N,N'-di-(adamantan-1-yl)guanidine]
in vitro [3H]DTG displacement activity (sigma receptor): found to possess the aforesaid in vitro [^3 H]DTG displacement activity
IC50 (sigma receptor; [2]): 11.8 ± 3.4 nM
IC50 (sigma receptor; [1]): 16.5 nM
IC50 (sigma receptor; [3]): 17 ± 3 nM
latency to entering the dark compartment (anxiety behavior of mice; oral): increase in the latency to entering the dark compartment
numbers of line crossings and/or rears in the light compartment (vs dark) (anxiety behavior of mice; oral): increase in the numbers of line crossings and rears in the light compartment
sedation: total numbers of rears and line crossings (anxiety behavior of mice; oral): did not decrease significantly
anxiolytic activity (anxiety behavior of mice; oral): have anxiolytic activity when orally administered
numbers of line crossings and/or rears in the light compartment (vs dark) (anxiety behavior of mice; s.c.): increased at the expense of those in the dark compartment
proportion of time spent in the lighted area (anxiety behavior of mice; s.c.): tended to increase the proportion of time the mice spent in the larger, lighted area
sedation: total numbers of rears and line crossings (anxiety behavior of mice; s.c.): did not decrease significantly showing that the drug was not sedative at this level

CC12CC3CC(C)(C1)CC(/N=C(\N)Nc1ccccc1/C=C/c1ccccc1)(C3)C2 [Example F-114-B, N-(3,5-dimethyladamantan-1-yl)-N'-[(E)-2-phenylethenyl]phenylguanidine]
sedation: total numbers of rears and line crossings (anxiety behavior of mice; s.c.): did not decrease significantly showing that the drug was not sedative at this level

N=C(Nc1cccc2c1CCC2)Nc1cccc2c1CCC2 [N,N'-Di-(4-indanyl)-guanidine]
IC50 (sigma receptor; [1]): 28.5 nM
IC50 (sigma receptor; [4]): 28.5 nM
IC50 ([3H]MK-801): 506 nM

N=C(Nc1ccccc1I)Nc1cccc2ccccc12 [N-(1-Naphthyl)-N'-(2-iodophenyl)-guanidine]
IC50 (sigma receptor; [1]): 40.1 nM
IC50 (sigma receptor; [4]): 40.1 nM
IC50 ([3H]MK-801): 209 nM

N=C(Nc1ccccc1I)Nc1ccccc1C=Cc1ccccc1 [N-(2-styrylphenyl)-N'-(2-iodophenyl)guanidine]
latency to entering the dark compartment (anxiety behavior of mice; i.p.): decreased the latency to entering the dark compartment
numbers of line crossings and/or rears in the light compartment (anxiety behavior of mice; i.p.): did not affect the numbers of line crossings or rears in the light compartment
proportion of time in light area / percentage of time in black compartment (anxiety behavior of mice; i.p.): No significant change in the percentage time in the black compartment

Cc1ccccc1NC(=N)NC1CCCCC1 [N-Cyclohexyl-N'-(2-methylphenyl)guanidine]
in vitro [3H]DTG displacement activity (sigma receptor): found to possess the aforesaid in vitro [^3 H]DTG displacement activity
IC50 (sigma receptor; [2]): 13 ± 1 nM
IC50 (sigma receptor; [1]): 13 nM
IC50 (sigma receptor; [3]): 17 ± 5 nM
latency to entering the dark compartment (anxiety behavior of mice; oral): slight increase in the latency to entering the dark compartment
numbers of line crossings and/or rears in the light compartment (vs dark) (anxiety behavior of mice; oral): increase in the total numbers of rears in the light compartment
proportion of time in light area / percentage of time in black compartment (anxiety behavior of mice; oral): significant decrease in the percentage of time in the black compartment
sedation: total numbers of rears and line crossings (anxiety behavior of mice; oral): did not change significantly, showing that the compound was not sedative
latency to entering the dark compartment (anxiety behavior of mice; s.c.): increase in the latency to entering the dark compartment
numbers of line crossings and/or rears in the light compartment (vs dark) (anxiety behavior of mice; s.c.): increased in a dose-dependent manner at the expense of those in the dark compartment
proportion of time spent in the lighted area (anxiety behavior of mice; s.c.): increases significantly the proportion of time the mice spent in the larger, lighted area
sedation: total numbers of rears and line crossings (anxiety behavior of mice; s.c.): did not decrease significantly, showing that the drug was not sedative

N=C(N)NCCC(=O)O [beta-guanidino propionic acid, reference compound]
displacement of [3H]DTG (sigma receptor; 10 uM): no significant displacement

CN1CCc2cc3c(cc2[C@H]1[C@@H]1OC(=O)c2c1ccc1c2OCO1)OCO3 [bicuculline, reference compound]
displacement of [3H]DTG (sigma receptor; 10 uM): no significant displacement

CN/C(=N/CCSCc1nc[nH]c1C)NC#N [cimetidine, reference compound]
displacement of [3H]DTG (sigma receptor): no significant displacement

CN(CC(=O)O)C(=N)N [creatine, reference compound]
displacement of [3H]DTG (sigma receptor; 10 uM): no significant displacement

CN1CC(=O)NC1=N [creatinine, reference compound]
displacement of [3H]DTG (sigma receptor; 10 uM): no significant displacement

N=C(N)NCCCC(=O)O [gamma-guanidino butyric acid, reference compound]
displacement of [3H]DTG (sigma receptor; 10 uM): no significant displacement

N=C(N)NCC(=O)O [guanidino acetic acid, reference compound]
displacement of [3H]DTG (sigma receptor; 10 uM): no significant displacement

C[N+](C)(C)CCCCCC[N+](C)(C)C [hexamethonium, reference compound]
displacement of [3H]DTG (sigma receptor; 10 uM): no significant displacement

CNC(=N)N [methyl-guanidine, reference compound]
displacement of [3H]DTG (sigma receptor; 10 uM): no significant displacement

C=CCN1CC[C@]23c4c5ccc(O)c4O[C@H]2C(=O)CC[C@@]3(O)[C@H]1C5 [naloxone, reference compound]
displacement of [3H]DTG (sigma receptor; 10 uM): no significant displacement

O=C1CC2(CCCC2)CC(=O)N1CCCCN1CCN(c2nsc3ccccc23)CC1 [tiospirone, reference compound]
IC50 (sigma receptor; [2]): 233 ± 52 nM

beta-endorphin [reference compound]
displacement of [3H]DTG (sigma receptor; 10 uM): no significant displacement

dynorphin A [reference compound]
displacement of [3H]DTG (sigma receptor; 10 uM): no significant displacement

picrotoxin [reference compound]
displacement of [3H]DTG (sigma receptor; 10 uM): no significant displacement

From patent US5574070A, “Substituted guanidines having high binding to the sigma receptor and the use thereof” (priority 1993, dated 1996)
